pKi: −log10 of the molar value.
Biological target: T1, nuclear factor-kappa B (NF-kB)-inducing kinase (NIK) (Homo sapiens, UniProt Q99558)
T1 construct: made in house; host or cells: baculovirus-infected insect cells
Test: NIK Enzyme Inhibition Assay (Transcreener ADP assay)
Type: biochemical
Conditions: purified NIK 0.2-1 nM, 10 uM ATP, fluorescence polarization, Morrison's quadratic equation; read-out: inhibitory value (Ki) for NIK

T1 sequence (Q99558 whole entry): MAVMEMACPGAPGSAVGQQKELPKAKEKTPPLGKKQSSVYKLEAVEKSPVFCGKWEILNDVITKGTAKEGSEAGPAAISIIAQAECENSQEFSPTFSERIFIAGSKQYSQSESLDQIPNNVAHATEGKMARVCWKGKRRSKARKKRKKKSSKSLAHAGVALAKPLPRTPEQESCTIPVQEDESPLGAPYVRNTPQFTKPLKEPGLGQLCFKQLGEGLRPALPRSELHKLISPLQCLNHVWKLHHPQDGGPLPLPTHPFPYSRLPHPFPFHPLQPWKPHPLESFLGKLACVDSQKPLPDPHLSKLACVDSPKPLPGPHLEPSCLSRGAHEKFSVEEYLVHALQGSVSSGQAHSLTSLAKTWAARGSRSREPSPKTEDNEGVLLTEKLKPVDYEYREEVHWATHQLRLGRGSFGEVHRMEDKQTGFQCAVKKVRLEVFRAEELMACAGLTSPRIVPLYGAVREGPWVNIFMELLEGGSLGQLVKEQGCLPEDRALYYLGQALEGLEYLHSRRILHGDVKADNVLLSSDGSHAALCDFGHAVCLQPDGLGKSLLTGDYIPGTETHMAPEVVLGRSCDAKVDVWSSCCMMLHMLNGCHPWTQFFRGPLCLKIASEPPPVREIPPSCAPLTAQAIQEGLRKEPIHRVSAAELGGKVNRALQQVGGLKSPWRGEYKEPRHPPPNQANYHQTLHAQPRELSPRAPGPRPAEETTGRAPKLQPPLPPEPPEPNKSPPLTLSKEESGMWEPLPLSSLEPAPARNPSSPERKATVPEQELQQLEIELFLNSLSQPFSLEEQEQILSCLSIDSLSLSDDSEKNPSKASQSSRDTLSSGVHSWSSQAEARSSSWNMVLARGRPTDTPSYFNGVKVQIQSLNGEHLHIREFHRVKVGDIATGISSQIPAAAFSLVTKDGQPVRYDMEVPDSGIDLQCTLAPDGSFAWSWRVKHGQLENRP

Row | SMILES | pKi
1 | N#Cc1ccc2cnn(-c3nc(N)ncc3[N+](=O)[O-])c2c1 [Example T1-8, 1-(2-amino-5-nitropyrimidin-4-yl)-1H-indazole-6-carbonitrile] | 6.39
2 | CC(C)(O)C#Cc1ccc2nc(C3CC3)n(-c3ccnc(N)n3)c2c1 [Example T1-17, 4-(1-(2-aminopyrimidin-4-yl)-2-cyclopropyl-1H-benzo[d]imidazol-6-yl)-2-methylbut-3-yn-2-ol] | 5.54
3 | COc1ncccc1Nc1ncnc(-n2ncc3ccc(C#CC(C)(C)O)cc32)n1 [Example T1-24, 4-(1-(4-(2-methoxypyridin-3-ylamino)-1,3,5-triazin-2-yl)-1H-indazol-6-yl)-2-methylbut-3-yn-2-ol] | 5.68
4 | CN(C)C(=O)c1nn(-c2ccnc(N)n2)c2cc(C#CC(C)(C)O)ccc12 [Example T1-30, 1-(2-aminopyrimidin-4-yl)-6-(3-hydroxy-3-methylbut-1-ynyl)-N,N-dimethyl-1H-indazole-3-carboxamide] | 7.22
5 | COc1ncccc1Nc1cc(-n2ncc3ccc(C#CC(C)(C)O)cc32)ncn1 [Example T1-31, 4-(1-(6-(2-methoxypyridin-3-ylamino)pyrimidin-4-yl)-1H-indazol-6-yl)-2-methylbut-3-yn-2-ol] | 5.34
6 | CN(C)C(=O)c1nn(-c2ccnc(N)n2)c2cc(C#C[C@@](C)(O)c3nccs3)ccc12 [Example T1-46, (R)-1-(2-aminopyrimidin-4-yl)-6-(3-hydroxy-3-(thiazol-2-yl)but-1-ynyl)-N,N-dimethyl-1H-indazole-3-carboxamide] | 9.80
7 | C[C@@](O)(C#Cc1ccc2[nH]c(=O)n(-c3ccnc(N)n3)c2c1)c1nccs1 [Example T1-47, (R)-1-(2-aminopyrimidin-4-yl)-6-(3-hydroxy-3-(thiazol-2-yl)but-1-ynyl)-1H-benzo[d] imidazol-2(3H)-one] | 9.96
8 | Cc1nn(-c2ccnc(N)n2)c2cc(C#C[C@](C)(O)c3nccs3)ccc12 [Example T1-49, (S)-4-(1-(2-aminopyrimidin-4-yl)-3-methyl-1H-indazol-6-yl)-2-(thiazol-2-yl)but-3-yn-2-ol] | 6.07
9 | Cc1csc(C(C)(O)C#Cc2ccc3c(C)nn(-c4ccnc(N)n4)c3c2)n1 (stereo not drawn) [Example T1-51, 4-(1-(2-aminopyrimidin-4-yl)-3-methyl-1H-indazol-6-yl)-2-(4-methylthiazol-2-yl)but-3-yn-2-ol] | 6.24
10 | Cc1nn(-c2ccnc(N)n2)c2cc(C#CC3(O)CCN(C)CC3)ccc12 [Example T1-69, 4-((1-(2-aminopyrimidin-4-yl)-3-methyl-1H-indazol-6-yl)ethynyl)-1-methylpiperidin-4-ol] | ≤ 5.30
11 | CCOc1nc2ccc(C#CC(C)(O)c3cc(C)on3)cc2n1-c1ccnc(N)n1 (stereo not drawn) [Example T1-70, 4-(1-(2-aminopyrimidin-4-yl)-2-ethoxy-1H-benzo[d]imidazol-6-yl)-2-(5-methyl-isoxazol-3-yl)but-3-yn-2-ol] | 9.30
12 | Cc1cc([C@](C)(O)C#Cc2ccc3[nH]c(=O)n(-c4ccnc(N)n4)c3c2)no1 [Example T1.1-1, 3-(2-aminopyrimidin-4-yl)-[(3R)-3-hydroxy-3-(5-methyl-isoxazol-3-yl)but-1-ynyl]-1H-benzimidazol-2-one] | 10.00
13 | Cc1nc2ccc(C#C[C@@](C)(O)c3nccs3)cc2n1-c1ncnc(N)n1 [Example T1.1-2, (2R)-4-[3-(4-amino-1,3,5-triazin-2-yl)-2-methyl-benzimidazol-5-yl]-2-thiazol-2-yl-but-3-yn-2-ol] | 9.70
14 | Cc1cc(C(C)(O)C#Cc2ccc3c(C(O)C(C)C)nn(-c4ccnc(N)n4)c3c2)no1 (stereo not drawn) [Example T1.1-3, 4-[1-(2-aminopyrimidin-4-yl)-3-(1-hydroxy-2-methyl-pro-pyl)indazol-6-yl]-2-(5-methyl-isoxazol-3-yl)but-3-yn-2-ol] | 9.70
15 | Cc1cc([C@](C)(O)C#Cc2ccc3c(CO)nn(-c4ccnc(N)n4)c3c2)no1 [Example T1.1-4, (2R)-4-[1-(2-aminopyrimidin-4-yl)-3-(hydroxymethyl)indazol-6-yl]-2-(5-methyl-isoxazol-3-yl)but-3-yn-2-ol] | 9.66

Reference: patent publication US8901313B2, “6,5-heterocyclic propargylic alcohol compounds and uses therefor” (Genentech, Inc., priority 2011, dated 2014)
